Data taken from US7638509B2, “Diene compounds and formulations” (priority 2003, dated 2009).

Legend:
AR [1] = molecular target: T1, AR (Homo sapiens, UniProt P10275, T878A); experiment: Competitive [3H]-R1881 ligand binding assay, LNCaP whole cell extracts; conditions: 1 nM [3H]-R1881, unlabeled ligand 1-10,000 nM, relative to DHT
T1 construct: LNCaP without transfection; endogenous in cells; host or cells: LNCaP
T1 sequence (P10275 1-920 T878A): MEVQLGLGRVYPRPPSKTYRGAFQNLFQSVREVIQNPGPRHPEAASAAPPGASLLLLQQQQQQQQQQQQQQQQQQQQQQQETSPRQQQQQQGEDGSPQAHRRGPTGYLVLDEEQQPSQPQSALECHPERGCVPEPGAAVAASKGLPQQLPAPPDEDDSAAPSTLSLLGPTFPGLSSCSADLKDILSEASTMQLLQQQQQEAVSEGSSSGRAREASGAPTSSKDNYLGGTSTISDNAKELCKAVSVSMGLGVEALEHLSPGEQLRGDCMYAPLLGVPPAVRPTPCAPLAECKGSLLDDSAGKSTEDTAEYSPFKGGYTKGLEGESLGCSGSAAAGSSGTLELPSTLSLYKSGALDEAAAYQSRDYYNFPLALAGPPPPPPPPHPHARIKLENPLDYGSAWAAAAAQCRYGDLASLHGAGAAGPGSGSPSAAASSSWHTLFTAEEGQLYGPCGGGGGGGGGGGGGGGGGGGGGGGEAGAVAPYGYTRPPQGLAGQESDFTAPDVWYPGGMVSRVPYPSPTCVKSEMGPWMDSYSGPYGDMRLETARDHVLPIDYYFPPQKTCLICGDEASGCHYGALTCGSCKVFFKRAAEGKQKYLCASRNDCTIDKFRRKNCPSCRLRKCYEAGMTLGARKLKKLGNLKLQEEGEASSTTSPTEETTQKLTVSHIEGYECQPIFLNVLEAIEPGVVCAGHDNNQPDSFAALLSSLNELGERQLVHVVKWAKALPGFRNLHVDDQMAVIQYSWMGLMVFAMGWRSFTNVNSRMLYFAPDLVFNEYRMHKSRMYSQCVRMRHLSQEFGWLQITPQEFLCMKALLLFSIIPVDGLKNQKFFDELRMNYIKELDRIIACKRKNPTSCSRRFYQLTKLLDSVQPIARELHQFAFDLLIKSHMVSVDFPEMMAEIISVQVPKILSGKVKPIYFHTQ
Experimental: Ligand Binding Assay. Whole cell extracts from COS-1 with transient transfection of pSG5-AR, or LNCaP without transfection, were incubated for 2 h at 37° C. with 1 nM [^3H]-synthetic androgen methyltrienolone (R1881) in the presence and absence of increasing concentrations (1-10,000 nM) of unlabeled ligands. Then, hydroxyapatite (Bio-Rad) was added and stirred for 15 min at 4° C. After centrifugation and washing, radioactivity was determined by scintillation counting.
Clinically available antiandrogens have an affinity for the AR, allowing a competition with androgens for binding. To determine whether ADEK has this common feature of AR antagonists, the competitive androgen binding assay was performed.

AR [2] = molecular target: T1, AR; experiment: Adiol-induced AR transcription, MMTV-Luc in LNCaP cells; format: cell-based; conditions: 2.5 nM Adiol, compound at 1 μM
Experimental: Cell Culture, Transfection, and Reporter Gene Assay. The human prostate cancer cell lines, LNCaP, PC-3, and DU145, and non-prostate cancer cell line COS-1 were maintained in RPMI or Dulbecco's modified Eagle's medium (DMEM) (Life Technologies) supplemented with 10% fetal bovine serum (FBS). Transfections and luciferase (Luc) assays were performed as previously described (Miyamoto, H., Yeh, S., Wilding, G. & Chang, C. (1998) Proc. Natl. Acad. Sci. USA 95, 7379-7384; Miyamoto, H., Rahman, M., Takatera, H., Kang, H.-Y., Yeh, S., Chang, H.-C., Nishimura, K., Fujimoto, N. & Chang, C. (2002) J. Biol. Chem. 277, 4609-4617). Briefly, cells seeded to reach a density of 50-60% confluence in 12 well tissue culture plates were transfected with 1.5 μg of DNA according to “SuperFect transfection” instructions (Qiagen). After 2-3 h incubation, cells were treated with medium supplemented with charcoal-stripped FBS containing either ethanol or ligands for 24 h. The cells were then harvested and whole cell extracts were used for Luc assay. The Luc activity was determined using a Dual-Luciferase Reporter Assay System (Promega) and luminometer.
Effect of ADEK on AR Transcription. […] (set as 100%). Values were obtained from the mean±SD of at least three determinations.

Which “RBA in LNCaP” value (AR [1]) does the source give for CC(=O)O[C@H]1C=C[C@@]2(C)C(=CC[C@@H]3[C@@H]2CC[C@@]2(C)[C@H]3CCC23OCCO3)C1 [ADEK, 3β-acetoxy-17,17-ethylenedioxyandrosta-1,5-diene] here?
The value was 11.1.

What about the “repression of Adiol-induced AR transcription” value (AR [2]) of the same molecule?
Its value is ~58%.
